According to publication PMC2248166, “Quantitative peptide binding motifs for 19 human and mouse MHC class I molecules derived using positional scanning combinatorial peptide libraries” (Immunome Research, 2008):
Where a SMILES comes first, the peptide text is derived from it.

Assays:
Assay in all cases: biochemical
Assay type in all cases: binding
[1] = biological target: HLA A*3201 (Homo sapiens, UniProt P04439, A270S/D101S/D185E/E176V/E277Q/F133L/G103R/G107R/G231S/H175R/I121M/I218V/I322F/K168Q/L105A/L300P/L318F/M331R/P208A/P217A/Q94H/R106L/R138Q/S129P/T104I/T323A/T345S/V100E/V321M/V358M)
[2] = biological target: HLA B*1501 (Homo sapiens, UniProt P01889, A329T/A93T/A95T/C349S/D201E/D98Y/E187L/E204Q/E69M/E70A/K202T/N87E/Q94N/R155S/R180W/S121R/S35A/S48A/V306I/V36M/Y140S/Y91S)
[3] = biological target: HLA A*3001 (Homo sapiens, UniProt P04439, D140H/D185E/E176W/F33S/G80R/H175R/K168Q/R138E/R41S)
Sequence of HLA A*3001 (P04439 25-365 limits assumed, stated change not applied): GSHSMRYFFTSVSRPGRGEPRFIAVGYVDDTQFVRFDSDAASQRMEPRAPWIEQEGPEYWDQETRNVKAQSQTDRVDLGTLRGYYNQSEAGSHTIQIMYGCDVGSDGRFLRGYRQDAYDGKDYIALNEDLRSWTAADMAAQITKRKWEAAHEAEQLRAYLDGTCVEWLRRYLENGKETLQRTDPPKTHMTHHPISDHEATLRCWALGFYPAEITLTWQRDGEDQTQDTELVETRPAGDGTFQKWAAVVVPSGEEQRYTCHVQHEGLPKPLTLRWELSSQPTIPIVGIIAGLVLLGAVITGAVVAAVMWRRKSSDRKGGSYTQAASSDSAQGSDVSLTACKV

[4] = biological target: HLA B*1503 (Homo sapiens, UniProt P01889, A329T/A93T/A95T/C349S/D201E/D98Y/E187L/E204Q/K202T/N87E/Q94N/R155S/R180L/S121R/S35A/V306I/V36M/Y140S/Y91S)

Row | Structure (SMILES) | IC50 [1] | other results
1 | CC[C@H](C)[C@H](N)C(=O)N[C@H](C(=O)N[C@H](C(=O)N[C@@H](Cc1ccccc1)C(=O)N[C@@H](Cc1ccccc1)C(=O)N[C@H](C(=O)N[C@H](C(=O)N[C@@H](CC(C)C)C(=O)N[C@H](C(=O)O)[C@@H](C)CC)C(C)C)[C@@H](C)CC)[C@@H](C)CC)[C@@H](C)CC [3102.0435] (H-IIIFFIVLI-OH) | 14 nM | 
2 | CC[C@H](C)[C@H](NC(=O)[C@@H](N)CO)C(=O)N[C@@H](Cc1ccc(O)cc1)C(=O)NCC(=O)N[C@@H](Cc1ccccc1)C(=O)NCC(=O)N[C@H](C(=O)N[C@H](C(=O)N[C@@H](Cc1ccccc1)C(=O)O)[C@@H](C)O)C(C)C [3102.0314] (H-SIYGFGVTF-OH) | 0.11 nM | 
3 | CC[C@H](C)[C@H](NC(=O)[C@@H](NC(=O)[C@H](Cc1ccc(O)cc1)NC(=O)[C@H](CO)NC(=O)[C@@H](N)CCCCN)[C@@H](C)O)C(=O)N[C@@H](CCCNC(=N)N)C(=O)N[C@H](C(=O)N[C@@H](Cc1ccccc1)C(=O)N[C@@H](Cc1ccccc1)C(=O)O)C(C)C [3102.0345] (H-KSYTIRVFF-OH) | 1.1 nM | 
4 | CC[C@H](C)[C@H](NC(=O)[C@@H](NC(=O)[C@@H](N)CCCCN)[C@@H](C)O)C(=O)N[C@@H](Cc1ccccc1)C(=O)N[C@@H](CC(C)C)C(=O)N[C@@H](CO)C(=O)N[C@@H](CCC(=O)O)C(=O)N1CCC[C@H]1C(=O)N[C@@H](Cc1ccc(O)cc1)C(=O)O [3102.0457] (H-KTIFLSEPY-OH) | 2.9 nM | 
5 | CC[C@H](C)[C@H](NC(=O)[C@@H](N)CCCCN)C(=O)N[C@@H](CC(N)=O)C(=O)N[C@@H](CC(N)=O)C(=O)N[C@@H](Cc1ccccc1)C(=O)N[C@@H](C)C(=O)N[C@@H](CC(N)=O)C(=O)N[C@@H](CCC(=O)O)C(=O)N[C@@H](Cc1ccccc1)C(=O)O [3102.0456] (H-KINNFANEF-OH) | 2.1 nM | 
6 | CC[C@H](C)[C@H](NC(=O)[C@H](CC(C)C)NC(=O)[C@H](CC(C)C)NC(=O)[C@@H](NC(=O)[C@H](Cc1ccccc1)NC(=O)[C@H](CO)NC(=O)[C@H](CC(N)=O)NC(=O)[C@@H](NC(=O)[C@@H](N)CO)C(C)C)[C@@H](C)O)C(=O)O [3102.0331] (H-SVNSFTLLI-OH) | 2.6 nM | 
7 | CC(C)C[C@H](NC(=O)[C@H](CC(N)=O)NC(=O)[C@H](Cc1ccc(O)cc1)NC(=O)[C@H](Cc1ccc(O)cc1)NC(=O)[C@@H](NC(=O)[C@H](Cc1ccc(O)cc1)NC(=O)[C@H](Cc1ccccc1)NC(=O)[C@H](CC(C)C)NC(=O)[C@@H](N)CCCCN)C(C)C)C(=O)O [3102.0343] (H-KLFYVYYNL-OH) | 0.34 nM | 
8 | CC[C@H](C)[C@H](NC(=O)[C@H](Cc1ccc(O)cc1)NC(=O)CNC(=O)[C@H](CO)NC(=O)[C@@H](NC(=O)[C@@H](N)CCCCN)[C@@H](C)O)C(=O)N[C@@H](CO)C(=O)N[C@@H](CO)C(=O)N[C@@H](Cc1ccccc1)C(=O)O [3102.0408] (H-KTSGYISSF-OH) | 0.5 nM | 
9 | CC[C@H](C)[C@H](NC(=O)[C@H](CO)NC(=O)[C@@H](NC(=O)[C@H](C)NC(=O)[C@@H](NC(=O)[C@H](CC(C)C)NC(=O)[C@H](CC(C)C)NC(=O)[C@@H](NC(=O)[C@@H](N)CCCCN)[C@@H](C)CC)C(C)C)C(C)C)C(=O)O [3102.0330] (H-KILLVAVSI-OH) | 1.5 nM | 
10 | CSCC[C@H](NC(=O)[C@H](Cc1ccc(O)cc1)NC(=O)[C@H](Cc1ccccc1)NC(=O)[C@H](CC(C)C)NC(=O)[C@@H](N)CCSC)C(=O)N[C@@H](CC(=O)O)C(=O)N[C@@H](CC(C)C)C(=O)N[C@@H](CO)C(=O)N[C@@H](Cc1ccc(O)cc1)C(=O)O [3102.0347] (H-MLFYMDLSY-OH) | 1.2 nM | 
11 | CC[C@H](C)[C@H](N)C(=O)N[C@H](C(=O)N[C@@H](CC(C)C)C(=O)N[C@@H](Cc1c[nH]cn1)C(=O)N[C@@H](CC(C)C)C(=O)N[C@@H](C)C(=O)N[C@@H](CS)C(=O)NCC(=O)N[C@@H](Cc1ccccc1)C(=O)O)[C@@H](C)O [3102.0338] (H-ITLHLACGF-OH) | 1.4 nM | 
12 | CC(C)C[C@H](NC(=O)[C@@H](NC(=O)[C@H](Cc1ccc(O)cc1)NC(=O)[C@H](CCCNC(=N)N)NC(=O)[C@H](CC(C)C)NC(=O)[C@H](CCC(=O)O)NC(=O)[C@H](Cc1ccc(O)cc1)NC(=O)[C@@H](NC(=O)[C@@H](N)C(C)C)[C@@H](C)O)[C@@H](C)O)C(=O)O [3102.0294] (H-VTYELRYTL-OH) | 12 nM | 
13 | CC[C@H](C)[C@H](NC(=O)[C@H](CC(C)C)NC(=O)[C@H](Cc1ccccc1)NC(=O)[C@@H](NC(=O)[C@@H](N)CCCNC(=N)N)[C@@H](C)O)C(=O)N[C@@H](CC(=O)O)C(=O)N[C@@H](CC(C)C)C(=O)N[C@@H](C)C(=O)N[C@@H](Cc1ccccc1)C(=O)O [3102.0420] (H-RTFLIDLAF-OH) | 0.48 nM | 
14 | CC[C@H](C)[C@H](NC(=O)[C@H](Cc1ccccc1)NC(=O)[C@@H](NC(=O)[C@H](CCC(N)=O)NC(=O)[C@@H](N)CCCNC(=N)N)[C@@H](C)CC)C(=O)N[C@@H](Cc1c[nH]cn1)C(=O)N[C@@H](Cc1ccc(O)cc1)C(=O)N[C@@H](CO)C(=O)N[C@H](C(=O)O)C(C)C [3102.0296] (H-RQIFIHYSV-OH) | 1 nM | 
15 | CC(C)C[C@H](NC(=O)[C@H](Cc1ccc(O)cc1)NC(=O)[C@H](CC(N)=O)NC(=O)[C@H](Cc1ccccc1)NC(=O)[C@H](Cc1c[nH]c2ccccc12)NC(=O)[C@H](CC(C)C)NC(=O)[C@H](CC(C)C)NC(=O)[C@@H](N)CC(C)C)C(=O)N[C@@H](Cc1ccccc1)C(=O)O [3102.0301] (H-LLLWFNYLF-OH) | 1.5 nM | 
16 | CC[C@H](C)[C@H](NC(=O)[C@@H](NC(=O)[C@@H]1CCCN1C(=O)[C@@H](NC(=O)[C@H](Cc1ccccc1)NC(=O)[C@H](CC(N)=O)NC(=O)[C@H](CCSC)NC(=O)[C@@H](NC(=O)[C@@H](N)CO)C(C)C)[C@@H](C)CC)[C@@H](C)CC)C(=O)O [3102.0404] (H-SVMNFIPII-OH) | 0.6 nM | 
17 | CC[C@H](C)[C@H](N)C(=O)N[C@H](C(=O)N[C@@H](CCSC)C(=O)N[C@H](C(=O)N[C@@H](CC(N)=O)C(=O)N[C@@H](CO)C(=O)N[C@@H](CC(C)C)C(=O)N[C@H](C(=O)N[C@@H](Cc1ccc(O)cc1)C(=O)O)[C@@H](C)O)C(C)C)[C@@H](C)O [3102.0363] (H-ITMVNSLTY-OH) | 96 nM | 
18 | CC[C@H](C)[C@H](NC(=O)[C@H](CC(C)C)NC(=O)[C@H](CC(C)C)NC(=O)[C@H](Cc1ccccc1)NC(=O)[C@H](Cc1c[nH]cn1)NC(=O)[C@H](C)NC(=O)[C@H](CO)NC(=O)[C@@H](N)CCCCN)C(=O)N[C@@H](Cc1ccccc1)C(=O)O [3102.0491] (H-KSAHFLLIF-OH) | 0.19 nM | 
19 | CC[C@H](C)[C@H](NC(=O)[C@@H](NC(=O)[C@@H](NC(=O)[C@H](CC(C)C)NC(=O)[C@H](CC(C)C)NC(=O)[C@H](CC(N)=O)NC(=O)[C@H](Cc1ccc(O)cc1)NC(=O)[C@H](CCSC)NC(=O)[C@@H](N)CC(C)C)[C@@H](C)O)[C@@H](C)CC)C(=O)O [3102.0455] (H-LMYNLLTII-OH) | 30 nM | 
20 | CC[C@H](C)[C@H](NC(=O)[C@H](Cc1c[nH]cn1)NC(=O)[C@@H](NC(=O)[C@H](CO)NC(=O)[C@@H](NC(=O)[C@H](C)NC(=O)[C@H](CO)NC(=O)[C@H](CC(C)C)NC(=O)[C@@H](N)CO)C(C)C)C(C)C)C(=O)O [3102.0349] (H-SLSAVSVHI-OH) | 34 nM | 
21 | CC[C@H](C)[C@H](NC(=O)[C@H](CO)NC(=O)[C@@H](NC(=O)[C@H](CCC(=O)O)NC(=O)[C@H](CC(N)=O)NC(=O)[C@H](Cc1ccc(O)cc1)NC(=O)[C@@H](NC(=O)[C@@H](NC(=O)[C@@H](N)CCCNC(=N)N)[C@@H](C)O)[C@@H](C)CC)[C@@H](C)O)C(=O)O [3102.0366] (H-RTIYNETSI-OH) | 1 nM | 
22 | CC(C)C[C@H](NC(=O)[C@@H](NC(=O)[C@H](CO)NC(=O)[C@H](CCCCN)NC(=O)[C@@H](NC(=O)[C@@H](N)Cc1c[nH]cn1)C(C)C)[C@@H](C)O)C(=O)N[C@@H](CC(N)=O)C(=O)N[C@@H](CC(N)=O)C(=O)N[C@@H](C)C(=O)O [3102.0217] (H-HVKSTLNNA-OH) |  | IC50 [2]: 367 nM; IC50 [3]: 1.2 nM
23 | CC[C@H](C)[C@H](NC(=O)[C@H](Cc1ccc(O)cc1)NC(=O)[C@H](C)NC(=O)[C@H](C)NC(=O)[C@H](Cc1c[nH]cn1)NC(=O)[C@H](CO)NC(=O)[C@@H](N)CCCCN)C(=O)N[C@@H](CC(=O)O)C(=O)N[C@@H](Cc1ccc(O)cc1)C(=O)O [3102.0209] (H-KSHAAYIDY-OH) |  | IC50 [2]: 1.8 nM; IC50 [4]: 1.7 nM; IC50 [3]: 12 nM
24 | CC[C@H](C)[C@H](NC(=O)[C@H](CO)NC(=O)[C@@H](N)Cc1c[nH]c2ccccc12)C(=O)N[C@@H](Cc1ccc(O)cc1)C(=O)N[C@@H](CC(C)C)C(=O)N[C@@H](CO)C(=O)N[C@@H](CC(C)C)C(=O)N[C@@H](Cc1c[nH]cn1)C(=O)N[C@@H](Cc1ccc(O)cc1)C(=O)O [3102.0867] (H-WSIYLSLHY-OH) |  | IC50 [2]: 48 nM; IC50 [4]: 8.9 nM
25 | CC(C)[C@H](NC(=O)[C@H](Cc1ccccc1)NC(=O)CNC(=O)[C@H](Cc1c[nH]cn1)NC(=O)[C@H](CC(N)=O)NC(=O)[C@H](CCC(N)=O)NC(=O)[C@@H](N)Cc1ccc(O)cc1)C(=O)N[C@@H](CO)C(=O)N[C@@H](Cc1ccccc1)C(=O)O [3102.1231] (H-YQNHGFVSF-OH) |  | IC50 [2]: 0.17 nM; IC50 [4]: 2.4 nM
26 | CC[C@H](C)[C@H](NC(=O)[C@H](CO)NC(=O)[C@@H](N)CCCCN)C(=O)N[C@@H](CCC(=O)O)C(=O)N[C@@H](CCC(N)=O)C(=O)N[C@@H](Cc1c[nH]cn1)C(=O)N1CCC[C@H]1C(=O)N[C@H](C(=O)N[C@H](C(=O)O)C(C)C)C(C)C [3102.0246] (H-KSIEQHPVV-OH) |  | IC50 [2]: 71 nM; IC50 [3]: 2.7 nM
